# Assays:
# Format in all cases: biochemical
# HDAC1 = HDAC1 (Homo sapiens, UniProt Q13547); assay: HDAC enzyme-based fluorogenic assay, HDAC1; conditions: read-out: HDAC1 IC50; mean of at least three experiments
# HDAC2 = HDAC2 (Homo sapiens, UniProt Q92769); assay: HDAC enzyme-based fluorogenic assay, HDAC2; conditions: read-out: HDAC2 IC50; mean of at least three experiments
# HDAC3 = HDAC3 (Homo sapiens, UniProt O15379); assay: HDAC enzyme-based fluorogenic assay, HDAC3; conditions: read-out: HDAC3 IC50; mean of at least three experiments
# Chain of HDAC3 (O15379 whole entry): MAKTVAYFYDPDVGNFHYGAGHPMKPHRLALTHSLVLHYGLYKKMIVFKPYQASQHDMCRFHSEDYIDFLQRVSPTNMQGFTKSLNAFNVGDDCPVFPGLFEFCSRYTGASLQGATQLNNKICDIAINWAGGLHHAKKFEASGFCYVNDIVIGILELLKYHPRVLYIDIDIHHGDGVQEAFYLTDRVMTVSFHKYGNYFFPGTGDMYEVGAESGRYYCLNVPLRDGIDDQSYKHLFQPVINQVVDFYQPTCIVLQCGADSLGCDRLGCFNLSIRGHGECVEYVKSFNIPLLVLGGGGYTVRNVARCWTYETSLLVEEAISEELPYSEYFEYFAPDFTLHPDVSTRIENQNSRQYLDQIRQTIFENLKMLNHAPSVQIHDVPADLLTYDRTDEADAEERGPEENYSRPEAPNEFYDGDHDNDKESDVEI
# Chain of HDAC3 (Q9Y618 395-489 partner limits assumed): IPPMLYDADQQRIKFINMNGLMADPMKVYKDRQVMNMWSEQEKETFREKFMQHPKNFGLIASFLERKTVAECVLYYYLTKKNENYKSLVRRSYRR
# HDAC6 = molecular target: T1, HDAC6 (Homo sapiens, UniProt Q9UBN7); assay: HDAC enzyme-based fluorogenic assay, HDAC6
# T1 sequence (Q9UBN7 1-1215): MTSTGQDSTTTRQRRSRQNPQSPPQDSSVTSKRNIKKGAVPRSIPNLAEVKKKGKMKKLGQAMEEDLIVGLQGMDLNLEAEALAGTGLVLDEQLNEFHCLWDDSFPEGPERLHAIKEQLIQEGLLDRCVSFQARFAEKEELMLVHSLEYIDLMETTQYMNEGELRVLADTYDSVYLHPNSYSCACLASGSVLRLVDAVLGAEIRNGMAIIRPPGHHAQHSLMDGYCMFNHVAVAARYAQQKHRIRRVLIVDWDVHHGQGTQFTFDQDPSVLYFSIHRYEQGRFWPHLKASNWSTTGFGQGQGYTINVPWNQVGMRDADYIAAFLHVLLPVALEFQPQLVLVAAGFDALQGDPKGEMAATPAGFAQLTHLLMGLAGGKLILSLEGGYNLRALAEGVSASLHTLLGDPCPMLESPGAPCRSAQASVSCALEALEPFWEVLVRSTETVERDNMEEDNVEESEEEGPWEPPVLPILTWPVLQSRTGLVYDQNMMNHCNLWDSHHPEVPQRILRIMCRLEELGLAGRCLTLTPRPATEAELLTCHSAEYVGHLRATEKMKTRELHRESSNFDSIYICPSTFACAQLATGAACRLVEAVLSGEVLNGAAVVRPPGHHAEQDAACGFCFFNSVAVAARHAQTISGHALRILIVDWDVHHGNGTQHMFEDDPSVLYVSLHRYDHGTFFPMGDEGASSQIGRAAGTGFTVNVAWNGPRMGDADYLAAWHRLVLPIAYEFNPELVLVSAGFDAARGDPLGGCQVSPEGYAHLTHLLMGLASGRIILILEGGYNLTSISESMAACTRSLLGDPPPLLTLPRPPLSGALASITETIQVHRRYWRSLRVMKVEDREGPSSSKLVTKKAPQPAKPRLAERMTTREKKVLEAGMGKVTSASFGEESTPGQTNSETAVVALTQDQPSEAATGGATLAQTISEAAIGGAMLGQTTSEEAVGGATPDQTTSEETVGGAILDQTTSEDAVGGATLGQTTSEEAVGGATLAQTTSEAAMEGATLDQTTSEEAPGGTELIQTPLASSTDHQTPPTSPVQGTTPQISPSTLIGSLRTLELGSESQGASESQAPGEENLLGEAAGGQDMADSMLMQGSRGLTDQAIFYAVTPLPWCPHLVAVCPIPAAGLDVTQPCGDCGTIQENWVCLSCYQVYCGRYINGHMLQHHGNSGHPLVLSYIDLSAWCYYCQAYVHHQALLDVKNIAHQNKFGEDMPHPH
# HDAC8 = molecular target: T2, HDAC8 (Homo sapiens, UniProt Q9BY41); assay: HDAC enzyme-based fluorogenic assay, HDAC8; conditions: read-out: HDAC8 IC50; mean of at least three experiments
# T2 sequence (Q9BY41 1-377): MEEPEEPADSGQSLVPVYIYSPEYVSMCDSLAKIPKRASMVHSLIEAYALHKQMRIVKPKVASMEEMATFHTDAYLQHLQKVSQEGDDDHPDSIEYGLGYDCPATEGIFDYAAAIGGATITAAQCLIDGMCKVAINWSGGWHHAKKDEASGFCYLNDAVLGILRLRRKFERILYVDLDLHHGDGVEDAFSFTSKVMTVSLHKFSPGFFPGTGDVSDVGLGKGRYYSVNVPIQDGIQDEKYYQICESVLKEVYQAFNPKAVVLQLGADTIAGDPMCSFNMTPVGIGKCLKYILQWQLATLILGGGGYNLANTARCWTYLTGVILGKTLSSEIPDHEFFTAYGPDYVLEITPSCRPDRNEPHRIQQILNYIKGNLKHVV
# HDAC11 = molecular target: T3, HDAC11 (Homo sapiens, UniProt Q96DB2); assay: HDAC enzyme-based fluorogenic assay, HDAC11; conditions: read-out: HDAC11 IC50; mean of at least three experiments
# T3 sequence (Q96DB2 1-347): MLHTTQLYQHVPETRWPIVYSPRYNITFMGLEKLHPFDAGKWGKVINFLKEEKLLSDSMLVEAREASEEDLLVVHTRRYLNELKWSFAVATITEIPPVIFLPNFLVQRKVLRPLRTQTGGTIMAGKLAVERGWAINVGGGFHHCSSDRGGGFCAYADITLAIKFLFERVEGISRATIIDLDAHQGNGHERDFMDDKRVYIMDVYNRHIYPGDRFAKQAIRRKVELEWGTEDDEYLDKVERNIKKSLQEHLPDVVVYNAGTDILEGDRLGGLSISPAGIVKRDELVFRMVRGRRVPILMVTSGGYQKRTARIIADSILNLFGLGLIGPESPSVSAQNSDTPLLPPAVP
# Chain of HDAC1 (Q13547 whole entry): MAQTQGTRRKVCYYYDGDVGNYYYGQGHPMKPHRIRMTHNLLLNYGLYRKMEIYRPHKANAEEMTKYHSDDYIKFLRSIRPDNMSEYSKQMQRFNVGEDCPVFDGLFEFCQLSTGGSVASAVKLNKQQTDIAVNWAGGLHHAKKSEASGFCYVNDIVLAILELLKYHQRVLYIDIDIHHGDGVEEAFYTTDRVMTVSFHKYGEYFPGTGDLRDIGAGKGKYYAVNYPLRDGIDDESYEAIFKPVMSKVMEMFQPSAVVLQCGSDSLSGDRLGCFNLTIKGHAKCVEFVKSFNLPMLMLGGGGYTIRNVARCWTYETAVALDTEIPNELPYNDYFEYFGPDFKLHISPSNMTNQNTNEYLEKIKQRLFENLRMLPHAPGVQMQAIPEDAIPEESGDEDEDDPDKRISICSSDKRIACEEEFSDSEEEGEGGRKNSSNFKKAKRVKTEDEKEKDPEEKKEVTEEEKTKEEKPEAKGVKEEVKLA
# Chain of HDAC2 (Q92769 whole entry): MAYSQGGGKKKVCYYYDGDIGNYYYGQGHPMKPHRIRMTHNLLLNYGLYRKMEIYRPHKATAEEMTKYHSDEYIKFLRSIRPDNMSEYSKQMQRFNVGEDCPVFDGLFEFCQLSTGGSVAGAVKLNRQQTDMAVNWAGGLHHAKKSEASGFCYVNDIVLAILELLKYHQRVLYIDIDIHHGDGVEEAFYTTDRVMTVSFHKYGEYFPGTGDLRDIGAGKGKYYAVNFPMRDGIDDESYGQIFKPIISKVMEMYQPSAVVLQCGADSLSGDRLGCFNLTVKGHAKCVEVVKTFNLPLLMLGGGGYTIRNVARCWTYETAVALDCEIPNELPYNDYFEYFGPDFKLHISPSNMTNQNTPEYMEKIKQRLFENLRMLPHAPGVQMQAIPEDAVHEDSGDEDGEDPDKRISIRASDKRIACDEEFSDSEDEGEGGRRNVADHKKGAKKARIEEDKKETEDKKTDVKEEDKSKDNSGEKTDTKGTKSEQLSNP
smiles,measurement,setting,value
"C[C@]12CC3CC(Nc4c(Nc5ccc(C(=O)N6CCC[C@H](C(=O)NCCCCCC(=O)NO)C6)cc5)c(=O)c4=O)(C1)C[C@@](C)(C3)C2 [Compound 40c, (S)-1-(4-((2-(((1r,3R,5S,7r)-3,5-Dimethyladamantan-1-yl)amino)-3,4-dioxocyclobut-1-en-1-yl)amino)benzoyl)-N-(6-(hydroxyamino)-6-oxohexyl)piperidine-3-carbo-xamide]",IC50,HDAC1,1030 nM
same,IC50,HDAC2,3100 nM
same,IC50,HDAC3,4150 nM
same,HDAC6 inhibitor rate,"HDAC6; final concentration of 2 μM, preliminary screen",98.49%
same,IC50,"HDAC6; read-out: HDAC6 IC50, mean of at least three experiments",282 nM
same,IC50,HDAC8,520 nM
same,IC50,HDAC11,84 nM
